Patent publication US11559497B2 (Guangzhou Dazhou Biomedicine Ltd., priority 2020, dated 2023)

Key:
[1] = Phase 1 clinical study: plasma pharmacokinetics after ketamine transdermal patch; conditions: for AUC / AUC(0-inf) / Cmax / half-life / Tmax: human, plasma, other: transdermal patch; for AUC(0-inf): AUCinf
Method: Enrollment was planned to achieve participation of up to 14 adult subjects with MDD in the 3 stages of the protocol. Subjects were to be screened within 4 weeks of enrollment. Eligible subjects who provided written consent were to be enrolled into Stage 1 of the study. In Stage 1 of the study, subjects were to receive the low-dose transdermal patch. The amount of residual drug was to be measured and PK analysis conducted for each subject to inform the subsequent dosing. In Stage 2, after a 2 to 4 week washout period, a placebo patch was to be administered. A “deception” protocol was used in order to ensure the subjects remained blinded to the treatment. Placebo administration was followed by a 1 week washout period, after which subjects were to receive the high-dose transdermal patch in Stage 3. The overall study duration from screening until the end of Stage 3 was approximately 60 days, including both inpatient and outpatient portions of the study. The general study design is illustrated in FIG. 3.
The patch was predicted to deliver systemically approximately 20 mg.
For Stage 1, blood samples were collected pre-patch application, and at 2, 6, 12, 24, 28, 32, 48, 96, and 168 hours post-patch application.
Blood samples were collected in tubes containing sodium heparin and stored on ice or room temperature until centrifuged under refrigeration or room temperature for at least 10 minutes at 3,000 revolutions per minute. After centrifugation, plasma was removed, divided into 2 aliquots of approximately 0.6 mL each, frozen, and stored at or below −20° C. Blood was processed to plasma and frozen within 1 hour of collection. Processed frozen plasma samples were transferred on dry ice to the analytical laboratory and were stored at or below −20° C. until bioanalysis was performed.
A non-compartmental analysis (NCA) was used to calculate PK parameters using Phoenix® WinNonlin® 6.4 or later (Certara, USA).

[2] = tested on: subjects diagnosed with major depressive disorder (MDD); assay: Phase 1 clinical study: safety; type: in vivo, human
Source text: Safety data included adverse events (AEs), concomitant medications, PE, vital signs (VS), ECGs, clinical laboratory results, other safety measures based on questionnaires (Clinician-Administered Dissociative States Scale [CADSS], Observer's Assessment of Alertness/Sedation Scale [OAA/S], Brief Psychiatric Rating Scale [BPRS]), and the emergence of suicidality based on the suicidal ideation and suicidal behavior ratings of the Columbia-Suicide Severity Rating Scale (C-SSRS). Safety summaries and analyses were performed on the Safety Population and were presented by treatment. Observed data was summarized using counts and percentages for discrete variables and means, SD, median, inter-quartile range (25th-75th percentile), minimum, and maximum for continuous measures.

[3] = cited from earlier work
patients = conditions: cited from earlier work
[4] = Stage 1: Ketamine Low-Dose (N = 18)
[5] = Stage 3: Ketamine High-Dose (N = 12)

In the case of CNC1(c2ccccc2Cl)CCCCC1=O (racemic) [Ketamine, ketamine], the plasma concentration ([1]; 96 hours post dose) is reported as “minimal values”, the plasma concentration ([1]; 168 hours post dose) is reported as “below quantification limit” and the Extrap ([1]; Stage 1, Mean) is reported as 6%. For the same molecule, the Extrap ([1]; Stage 1, Median) was 6%, the Extrap ([1]; Stage 3, Mean) was 4% and the Extrap ([1]; Stage 3, Median) was 3%. For the same molecule, the AUC ([1]; 20 mg, AUCall, Stage 1 (60 cm^2 patch, 24 h, low-dose), Mean) was 284 ng·h/mL, the AUC ([1]; 20 mg, AUCall, Stage 1 (60 cm^2 patch, 24 h, low-dose), Median) was 280 ng·h/mL and the AUC(0-inf) ([1]; 20 mg, Stage 1, Mean) was 299 ng·h/mL. The AUC(0-inf) ([1]; 20 mg, Stage 1, Median) was 274 ng·h/mL, the Cmax ([1]; 20 mg, Stage 1, Mean) was roughly 10.3 ng/mL and the Cmax ([1]; 20 mg, Stage 1, Median) was 9.92 ng/mL. For the same molecule, the half-life ([1]; 20 mg, T1/2, Stage 1, Mean) was 13.2 h, the half-life ([1]; 20 mg, T1/2, Stage 1, Median) was 13.7 h and the Tmax ([1]; 20 mg, Stage 1, Mean) was 27.1 h. It also gave a Tmax ([1]; 20 mg, Stage 1, Median) of 28 h, an AUC ([1]; 20 mg, average AUC of ketamine per cm^2 patch over 24 hours, Stage 1) of 3.62 ng·h/mL and an AUC ([1]; 40 mg, AUCall, Stage 3 (20 and 60 cm^2 patches, high-dose), Mean) of 393 ng·h/mL. It also gave an AUC ([1]; 40 mg, AUCall, Stage 3 (20 and 60 cm^2 patches, high-dose), Median) of 339 ng·h/mL, an AUC(0-inf) ([1]; 40 mg, Stage 3, Mean) of 423 ng·h/mL and an AUC(0-inf) ([1]; 40 mg, Stage 3, Median) of 362 ng·h/mL. It also gave a Cmax ([1]; 40 mg, Stage 3, Mean) of roughly 14.4 ng/mL, a Cmax ([1]; 40 mg, Stage 3, Median) of 9.67 ng/mL and a half-life ([1]; 40 mg, T1/2, Stage 3, Mean) of 13.8 h. It also gave a half-life ([1]; 40 mg, T1/2, Stage 3, Median) of 14.9 h, a Tmax ([1]; 40 mg, Stage 3, Mean) of 27 h and a Tmax ([1]; 40 mg, Stage 3, Median) of 28 h. For the same molecule, the AUC ([1]; 40 mg, average AUC of ketamine per cm^2 patch over 24 hours, Stage 3) was 4.17 ng·h/mL, the “overall safety and tolerability” value ([2]; 20 mg and 40 mg doses) was “generally safe and well tolerated” and the “At least 1 TEAE, # of Events” value [2, 4] was 3. For the same molecule, the “At least 1 TEAE, n (%)” value [2, 4] was 3 (16.7) n (%), the “Cardiac disorders, # of Events” value [2, 4] was 0 and the “Cardiac disorders, n (%)” value [2, 4] was 0 n (%). The “Contusion, # of Events” value [2, 4] was 1, the “Contusion, n (%)” value [2, 4] was 1(5.6) n (%) and the “Depression, # of Events” value [2, 4] was 0. For the same molecule, the “Depression, n (%)” value [2, 4] was 0 n (%), the “Dermatitis, # of Events” value [2, 4] was 0 and the “Dermatitis, n (%)” value [2, 4] was 0 n (%). The “Diarrhoea, # of Events” value [2, 4] was 1, the “Diarrhoea, n (%)” value [2, 4] was 1(5.6) n (%) and the “Erythema, # of Events” value [2, 4] was 0. The “Erythema, n (%)” value [2, 4] was 0 n (%), the “Gastrointestinal disorders, # of Events” value [2, 4] was 1 and the “Gastrointestinal disorders, n (%)” value [2, 4] was 1 (5.6) n (%). For the same molecule, the “Headache, # of Events” value [2, 4] was 0, the “Headache, n (%)” value [2, 4] was 0 n (%) and the “Infections and infestations, # of Events” value [2, 4] was 0. The “Infections and infestations, n (%)” value [2, 4] was 0 n (%), the “Injury, poisoning, and procedural complications, # of Events” value [2, 4] was 1 and the “Injury, poisoning, and procedural complications, n (%)” value [2, 4] was 1 (5.6) n (%). For the same molecule, the “Nervous system disorders, # of Events” value [2, 4] was 1, the “Nervous system disorders, n (%)” value [2, 4] was 1 (5.6) n (%) and the “Psychiatric disorders, # of Events” value [2, 4] was 0. The “Psychiatric disorders, n (%)” value [2, 4] was 0 n (%), the “Skin and subcutaneous tissue disorders, # of Events” value [2, 4] was 0 and the “Skin and subcutaneous tissue disorders, n (%)” value [2, 4] was 0 n (%). For the same molecule, the “Somnolence, # of Events” value [2, 4] was 1, the “Somnolence, n (%)” value [2, 4] was 1 (5.6) n (%) and the “Swelling face, # of Events” value [2, 4] was 0. The “Swelling face, n (%)” value [2, 4] was 0 n (%), the “Tachycardia, # of Events” value [2, 4] was 0 and the “Tachycardia, n (%)” value [2, 4] was 0 n (%). For the same molecule, the “Urinary tract infection, # of Events” value [2, 4] was 0, the “Urinary tract infection, n (%)” value [2, 4] was 0 n (%) and the “At least 1 TEAE, # of Events” value [2, 5] was 5. For the same molecule, the “At least 1 TEAE, n (%)” value [2, 5] was 4 (33.3) n (%), the “Cardiac disorders, # of Events” value [2, 5] was 0 and the “Cardiac disorders, n (%)” value [2, 5] was 0 n (%). The “Contusion, # of Events” value [2, 5] was 1, the “Contusion, n (%)” value [2, 5] was 1 (8.3) n (%) and the “Depression, # of Events” value [2, 5] was 1. The “Depression, n (%)” value [2, 5] was 1 (8.3) n (%), the “Dermatitis, # of Events” value [2, 5] was 0 and the “Dermatitis, n (%)” value [2, 5] was 0 n (%). The “Diarrhoea, # of Events” value [2, 5] was 0, the “Diarrhoea, n (%)” value [2, 5] was 0 n (%) and the “Erythema, # of Events” value [2, 5] was 1. The “Erythema, n (%)” value [2, 5] was 1 (8.3) n (%), the “Gastrointestinal disorders, # of Events” value [2, 5] was 0 and the “Gastrointestinal disorders, n (%)” value [2, 5] was 0 n (%). The “Headache, # of Events” value [2, 5] was 1, the “Headache, n (%)” value [2, 5] was 1 (8.3) n (%) and the “Infections and infestations, # of Events” value [2, 5] was 0. For the same molecule, the “Infections and infestations, n (%)” value [2, 5] was 0 n (%), the “Injury, poisoning, and procedural complications, # of Events” value [2, 5] was 1 and the “Injury, poisoning, and procedural complications, n (%)” value [2, 5] was 1 (8.3) n (%). The “Nervous system disorders, # of Events” value [2, 5] was 1, the “Nervous system disorders, n (%)” value [2, 5] was 1 (8.3) n (%) and the “Psychiatric disorders, # of Events” value [2, 5] was 1. For the same molecule, the “Psychiatric disorders, n (%)” value [2, 5] was 1 (8.3) n (%), the “Skin and subcutaneous tissue disorders, # of Events” value [2, 5] was 2 and the “Skin and subcutaneous tissue disorders, n (%)” value [2, 5] was 1 (8.3) n (%). The “Somnolence, # of Events” value [2, 5] was 0, the “Somnolence, n (%)” value [2, 5] was 0 n (%) and the “Swelling face, # of Events” value [2, 5] was 1. The “Swelling face, n (%)” value [2, 5] was 1 (8.3) n (%), the “Tachycardia, # of Events” value [2, 5] was 0 and the “Tachycardia, n (%)” value [2, 5] was 0 n (%). For the same molecule, the “Urinary tract infection, # of Events” value [2, 5] was 0, the “Urinary tract infection, n (%)” value [2, 5] was 0 n (%) and the “OAA/S change from baseline composite score between treatments” value ([2]; any timepoint) was “No significant differences”. The “TEAEs considered possibly related to the study drug” value ([2]; headache and diarrhoea) was 2, the “PR interval or QTcB interval” value ([2]; human, in vivo) was “No trends in mean change from baseline” and the “SBP, DBP, oxygen saturation, temperature” value ([2]; human, in vivo) was “No notable mean changes from baseline”. The “adverse reactions at the patch application site” value ([2]; human, in vivo) was “no adverse reactions noted at the patch application site”, the “deaths or SAEs” value ([2]; human, in vivo) was “no deaths or SAEs” and the laboratory parameters ([2]; human, in vivo) was “no clinically significant abnormal trends”. For the same molecule, the “severe TEAEs” value ([2]; human, in vivo) was “no severe TEAEs”, the “respiratory rate and HR” value ([2]; ketamine high dose) was “a decrease in mean respiratory rate and an increase in HR compared to baseline” and the “BPRS, BPRS-Positive subscale, CADSS total score post-patch application” value ([2]; low-dose or high-dose) was “no increase in the total score of the BPRS, the BPRS-Positive subscale, or the CADSS”. For the same molecule, the “TEAEs considered probably related to the study drug” value ([2]; somnolence) was 1, the absolute oral bioavailability ([3]; humans) was 10-20% and the “systemic (primarily hepatic) clearance” value ([3]; in vivo) was “about 19 ml/min·kg”. For the same molecule, the “time after which side effects typically resolved” value (patients; 0.5 mg/kg 40 minutes IV infusion) was “about 2 hours”, the “duration of antidepressant effect after single dose” value (patients; IV infusion or intranasal spray) was “about 3 days” and the “reduction of opioid consumption” value (patients; low-dose IV, perioperative pain, meta-analysis) was 40%.
